Some test systems named below: 786-0; A498; HCC 2998; HCT-15; IGROV-1; K562; MDA-MB-231; MDA-N; MOLT-4; NCI-H522; OVCAR-5; SK-MEL-5; SK-OV-3; SW-620; U-251; UACC-257; UO-31; A549; SNB-75; SF-539.
What all share (experiment): inhibition of tumour cell growth, NCI panel, 48 h

Each structure is given as a SMILES string.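 Following 48 hours of exposure in 96-well plates, responses at five concentrations were used to interpolate endpoints linearly. At the GI50, growth is halved.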 Calls of active or inactive are those of the source. Cut-off read from the data, not from the text of the source: active = GI50 up to about 1.1 µM and inactive = higher.

On to `CCOC(=O)Nc1sc2c(c1C#N)CCCC2`, for which the GI50 in the experiment with 786-0 is > 100 µM (inactive); with A498, 85.3 µM (inactive); in the experiment on HCC 2998, > 100 µM (inactive); in the experiment with HCT-15 it was 79.4 µM; with IGROV-1 it was > 100 µM (inactive); in the experiment with K562, 33.1 µM (inactive). The GI50 in the experiment with MDA-MB-231 was 71.3 µM (inactive); in the experiment on MDA-N, 50.4 µM (inactive); in the experiment on MOLT-4, 62.5 µM (inactive); in the experiment on NCI-H522 it was 64 µM (inactive); in the experiment with OVCAR-5, > 100 µM (inactive); in the experiment with SK-MEL-5 it was 71.6 µM (inactive). Besides, the GI50 in the experiment on SK-OV-3 was > 100 µM (inactive); with SW-620, > 100 µM (inactive); in the experiment with U-251, > 100 µM (inactive); in the experiment with UACC-257 it was > 100 µM (inactive); with UO-31, 27.7 µM (inactive).

For the compound `Cc1cccc(/N=N/C(=O)NNc2cccc(C)c2C)c1C`, the GI50 in the experiment on 786-0 was 35.2 µM (inactive); in the experiment with A498, 34 µM (inactive); in the experiment on A549, 31.2 µM (inactive); in the experiment on HCC 2998 it was 15 µM (inactive); in the experiment with HCT-15 it was 38.5 µM; with IGROV-1, 23.9 µM (inactive). The GI50 in the experiment on K562 is 33.7 µM (inactive); with MDA-MB-231, 47.5 µM (inactive); in the experiment with MDA-N, 36.3 µM (inactive); in the experiment with MOLT-4, > 10 µM (inactive); with NCI-H522, 24.7 µM (inactive); with OVCAR-5, 37 µM (inactive). Moreover, the GI50 is 28.6 µM (inactive) in the experiment on SK-MEL-5; 54.3 µM (inactive) in the experiment on SNB-75; 34 µM (inactive) in the experiment on SW-620; 35.8 µM (inactive) in the experiment on U-251; 34.7 µM (inactive) in the experiment with UACC-257; 30.8 µM (inactive) with UO-31.

Take `CCCCCCCCCCCCOCC(COP(=O)(O)OCCN=[N+]=[N-])OC(=O)CCCCCCCCCCC` (stereo not given): the GI50 is > 100 µM (inactive) in the experiment with 786-0; > 100 µM (inactive) in the experiment on A498; > 100 µM (inactive) with A549; > 100 µM (inactive) in the experiment on HCC 2998; more than 100 µM in the experiment with HCT-15; > 100 µM (inactive) in the experiment with K562. Further, the GI50 with MDA-MB-231, with MDA-N, in the experiment on MOLT-4, with NCI-H522, with OVCAR-5 and with SF-539 was > 100 µM (inactive) throughout. Moreover, the GI50 in the experiment with SK-MEL-5, in the experiment on SK-OV-3, in the experiment on SW-620, with U-251 and in the experiment on UO-31 was > 100 µM (inactive) throughout.

For the compound `O=C(O)[C@@H]1CCS(=O)(=O)N1`, the GI50 in the experiment with 786-0 is > 100 µM (inactive); with A498 it was > 100 µM (inactive); with A549, > 100 µM (inactive); in the experiment on HCC 2998, > 100 µM (inactive); in the experiment on HCT-15 it was more than 100 µM; in the experiment on IGROV-1, > 100 µM (inactive). In addition, the GI50 in the experiment on MDA-MB-231, in the experiment on MDA-N, in the experiment with MOLT-4, with NCI-H522, in the experiment on OVCAR-5 and in the experiment with SF-539 was > 100 µM (inactive) each time. Moreover, the GI50 in the experiment with SK-MEL-5, in the experiment with SK-OV-3, in the experiment on SW-620 and in the experiment on UACC-257 was > 100 µM (inactive) throughout.

Regarding `CCCCNC(=O)C1=C(C)NC(C)=C(C(=O)NCCCC)C1`, the GI50 in the experiment on 786-0 was > 100 µM (inactive); in the experiment on A498 it was > 100 µM (inactive); in the experiment with A549, > 100 µM (inactive); in the experiment on HCC 2998, > 100 µM (inactive); in the experiment on HCT-15 it was more than 100 µM; in the experiment with IGROV-1, 61.1 µM (inactive). In addition, the GI50 with MDA-MB-231 was > 100 µM (inactive); in the experiment with MDA-N, > 100 µM (inactive); in the experiment on MOLT-4, > 100 µM (inactive); in the experiment with OVCAR-5, > 100 µM (inactive); with SF-539 it was > 100 µM (inactive); in the experiment with SK-MEL-5, 89.7 µM (inactive). Besides, the GI50 is > 100 µM (inactive) with SK-OV-3; 49.8 µM (inactive) in the experiment with SNB-75; > 100 µM (inactive) with SW-620; > 100 µM (inactive) in the experiment with U-251; > 100 µM (inactive) with UACC-257; > 100 µM (inactive) in the experiment with UO-31.

`COc1ccc2c(c1)CC1(O)COc3cc(OC)ccc3C1O2` (stereo not given): the GI50 with 786-0 was > 100 µM (inactive); with A498 it was > 100 µM (inactive); in the experiment with A549, > 100 µM (inactive); in the experiment with HCC 2998, 77.8 µM (inactive); with HCT-15, 96.2 µM; with IGROV-1, > 100 µM (inactive). The GI50 in the experiment on MDA-MB-231 was > 100 µM (inactive); in the experiment with MDA-N it was > 100 µM (inactive); in the experiment on MOLT-4, 48.4 µM (inactive); with NCI-H522 it was > 100 µM (inactive); in the experiment with OVCAR-5 it was > 100 µM (inactive); in the experiment on SF-539, > 100 µM (inactive). For the same compound, the GI50 in the experiment with SK-MEL-5 was 38.8 µM (inactive); in the experiment with SK-OV-3, > 100 µM (inactive); in the experiment with SW-620, 95.1 µM (inactive); in the experiment with U-251, 91.6 µM (inactive); in the experiment with UACC-257 it was 61.8 µM (inactive); in the experiment on UO-31, > 100 µM (inactive).

Take `C=CCC1C(O[Si](C)(C)C(C)(C)C)C(CO[Si](C)(C)C(C)(C)C)OC1n1ccc(=O)[nH]c1=O` (stereo not given): the GI50 with 786-0 is 1.15 µM (inactive); in the experiment with A498 it was 2.03 µM (inactive); with A549, 1.38 µM (inactive); with HCC 2998, 1.63 µM (inactive); with HCT-15 it was 1.15 µM; in the experiment on IGROV-1, 1.41 µM (inactive). Besides, the GI50 with K562 was 1.22 µM (inactive); with MDA-MB-231, 1.79 µM (inactive); with MDA-N it was 1.51 µM (inactive); in the experiment on MOLT-4 it was 0.597 µM (active); in the experiment with OVCAR-5, 1.28 µM (inactive); with SF-539 it was 1.6 µM (inactive). For the same compound, the GI50 in the experiment on SK-MEL-5 was 1.51 µM (inactive); in the experiment with SNB-75, 1.24 µM (inactive); in the experiment with SW-620, 1.16 µM (inactive); with U-251 it was 2.2 µM (inactive); with UACC-257, 1.68 µM (inactive); with UO-31 it was 1.36 µM (inactive).

Take `O=c1cc(-c2ccccc2)oc2cc(Oc3nnnn3-c3ccccc3)ccc12`: the GI50 in the experiment on 786-0 was 38.7 µM (inactive); in the experiment with A498 it was 28.3 µM (inactive); in the experiment with A549, 31.6 µM (inactive); with HCC 2998, > 100 µM (inactive); with HCT-15 it was 29 µM; with IGROV-1 it was 98.4 µM (inactive). Also, the GI50 is 32.6 µM (inactive) in the experiment with K562; 42.6 µM (inactive) in the experiment with MDA-MB-231; 41.5 µM (inactive) with MDA-N; 32.4 µM (inactive) in the experiment with MOLT-4; 36.1 µM (inactive) with NCI-H522; 22.4 µM (inactive) in the experiment with SF-539. Further, the GI50 was 15.1 µM (inactive) in the experiment with SK-MEL-5; 36 µM (inactive) in the experiment on SK-OV-3; > 100 µM (inactive) in the experiment with SW-620; 19.1 µM (inactive) in the experiment on U-251; 32.5 µM (inactive) in the experiment on UACC-257; 19 µM (inactive) in the experiment on UO-31.

Turning to `Cc1cc(Cl)ccc1/N=N/C(=O)NNc1ccc(Cl)cc1C`, the GI50 was 16.3 µM (inactive) in the experiment on 786-0; 9.06 µM (inactive) with A498; 12.9 µM (inactive) with A549; 11.5 µM (inactive) in the experiment on HCC 2998; 12.2 µM with HCT-15; 6.62 µM (inactive) with IGROV-1. Further, the GI50 in the experiment on K562 was 22 µM (inactive); with MDA-MB-231 it was 11.7 µM (inactive); in the experiment with MDA-N, 16.3 µM (inactive); with MOLT-4, 14 µM (inactive); in the experiment with NCI-H522, 20.3 µM (inactive); with OVCAR-5, 15.8 µM (inactive). Also, the GI50 in the experiment with SK-MEL-5 is 13.9 µM (inactive); with SNB-75, 15.6 µM (inactive); in the experiment on SW-620 it was 15.9 µM (inactive); with U-251, 16.4 µM (inactive); in the experiment with UACC-257, 17.1 µM (inactive); in the experiment on UO-31, 13 µM (inactive).

For `CC1(C)CO[P@@](=S)(c2ccccn2)O[C@@H]1c1ccccc1`, the GI50 is > 100 µM (inactive) in the experiment with 786-0; > 100 µM (inactive) in the experiment on A498; > 100 µM (inactive) in the experiment on A549; > 100 µM (inactive) in the experiment with HCC 2998; 94.4 µM in the experiment on HCT-15; > 100 µM (inactive) in the experiment on IGROV-1. Further, the GI50 in the experiment with K562 is 57 µM (inactive); in the experiment with MDA-MB-231, > 100 µM (inactive); with MDA-N, > 100 µM (inactive); in the experiment on MOLT-4, 44.5 µM (inactive); in the experiment with NCI-H522, 70.8 µM (inactive); in the experiment on OVCAR-5, > 100 µM (inactive). For the same compound, the GI50 in the experiment with SK-MEL-5 was 95.1 µM (inactive); in the experiment on SK-OV-3, > 100 µM (inactive); in the experiment on SNB-75, > 100 µM (inactive); in the experiment on SW-620 it was > 100 µM (inactive); with U-251 it was > 100 µM (inactive); in the experiment on UACC-257 it was > 100 µM (inactive). For the same compound, in the experiment on UO-31, the GI50 is 82.6 µM (inactive).

In the case of `COc1ccc(CCNC(=O)c2ccccc2C2c3ccc(OCc4ccccc4)cc3Oc3cc(OCc4ccccc4)ccc32)cc1OC`, the GI50 in the experiment on 786-0 is > 100 µM (inactive); in the experiment with A498 it was > 100 µM (inactive); in the experiment with A549, > 100 µM (inactive); in the experiment with HCC 2998, > 100 µM (inactive); in the experiment with HCT-15, more than 100 µM; in the experiment on IGROV-1, > 100 µM (inactive). In addition, the GI50 in the experiment on K562, with MDA-MB-231, in the experiment with MDA-N, in the experiment on MOLT-4, with NCI-H522 and with OVCAR-5 was > 100 µM (inactive) each time. Moreover, the GI50 is > 100 µM (inactive) in the experiment with SK-MEL-5; > 100 µM (inactive) with SK-OV-3; > 100 µM (inactive) in the experiment on SW-620; > 100 µM (inactive) with U-251; 94.6 µM (inactive) in the experiment on UACC-257; > 100 µM (inactive) in the experiment on UO-31.

Values taken from ChEMBL document CHEMBL1201862, “PubChem BioAssay data set” (2004).
